# Activity calls are given as the source filed them. The calls are words filed in the database; no cut-off is given here.
# Columns and labels:
# HeLa [1] = experiment: Antiproliferative activity against human HeLa cells assessed as inhibition of cell growth at 25 nM measured after 24 hrs by SRB assay relative to control; assay type: functional
# HeLa [2] = experiment: Antiproliferative activity against human HeLa cells assessed as reduction in cell growth by SRB assay; assay type: functional, cell-based
# Capra hircus [3] = species on record: Capra hircus; experiment: Binding affinity to colchicine binding site of goat brain tubulin assessed as tubulin-compound complex fluorescence intensity at 10 uM preincubated with CA-4 for 30 mins followed by compound addition and measured after 30 mins by fluorescence based analysis
# [4] = Binding affinity to goat brain tubulin assessed as increase in fluorescence intensity incubated for 30 mins by spectrofluorometric analysis; assay type: tissue-based, Capra hircus
# MDA-MB-231 = experiment: Antiproliferative activity against human MDA-MB-231 cells assessed as reduction in cell growth by SRB assay; assay type: functional, cell-based
# A549 [5] = experiment: Cytotoxicity against human A549 cells assessed as proportion of live cells at 10 nM incubated for 24 hrs by PI-staining based flow cytometry analysis (reference value: 90.1 to 90.2%); assay type: functional
# A549 [6] = experiment: Cytotoxicity against human A549 cells assessed as proportion of live cells at 20 nM incubated for 24 hrs by PI-staining based flow cytometry analysis (reference value: 90.1 to 90.2%); assay type: functional
# A549 [7] = experiment: Cytotoxicity against human A549 cells assessed as proportion of dead cells at 10 nM incubated for 24 hrs by PI-staining based flow cytometry analysis (reference value: 9.8 to 9.9%); assay type: functional
# Tubulin (Homo sapiens) [8] = target: T1, Tubulin (Homo sapiens) (UniProt P68371+Q9H4B7+P0DPH7+P68366+Q13509+Q71U36+P04350+Q3ZCM7+P07437+P68363+Q9BQE3+Q6PEY2+Q13885+Q9BVA1+Q9BUF5); experiment: Inhibition of tubulin polymerization in human A549 cells assessed as induction of interphase microtubule disorganization at 10 nM measured after 24 hrs by Hoechst-33258 staining based immunofluorescence analysis; assay type: cell-based
# B16-F10 = experiment: Antiproliferative activity against mouse B16-F10 cells assessed as reduction in cell growth by SRB assay; assay type: functional, cell-based
# Tubulin (Homo sapiens) [9] = target: T1, Tubulin (Homo sapiens); experiment: Inhibition of tubulin polymerization in human HeLa cells assessed as induction of interphase microtubule depolymerization at 10 to 20 nM measured after 24 hrs by Hoechst-33258 staining based immunofluorescence analysis; assay type: cell-based; settings: dose 10-20 nM
# Tubulin (Homo sapiens) [10] = target: T1, Tubulin (Homo sapiens); experiment: Inhibition of tubulin polymerization in human HeLa cells assessed as induction of mitotic microtubule depolymerization at 10 to 20 nM measured after 24 hrs by Hoechst-33258 staining based immunofluorescence analysis; assay type: cell-based; settings: dose 10-20 nM
# A549 [11] = experiment: Induction of cell cycle arrest in human A549 cells assessed as accumulation of cells at S phase at 10 nM incubated for 12 hrs by propidium iodide/RNase-staining based flow cytometry analysis (reference value: 22 +/- 6%); assay type: functional
# Capra hircus [12] = species on record: Capra hircus; experiment: Inhibition of goat brain tubulin polymerization at 1 uM incubated for 10 mins followed by GTP addition and measured for 35 mins by spectrophotometric analysis relative to control; assay type: tissue-based; settings: time 45.0 min
# Tubulin (Homo sapiens) [13] = target: T1, Tubulin (Homo sapiens); experiment: Inhibition of tubulin polymerization in human A549 cells assessed as reduction in fluorescence intensity of microtubules at 10 nM measured after 24 hrs by Hoechst-33258 staining based immunofluorescence analysis relative to control; assay type: cell-based
# A549 [14] = experiment: Induction of cell cycle arrest in human A549 cells assessed as accumulation of cells at S phase at 20 nM incubated for 12 hrs by propidium iodide/RNase-staining based flow cytometry analysis (reference value: 22 +/- 6%); assay type: functional
# [15] = Selectivity index, ratio of IC50 for cytotoxicity against mouse L929 cells to IC50 for antiproliferative activity against mouse B16-F10 cells; assay type: toxicity, cell-based; settings: L929 cells versus B16-F10 cells, read-out: Ratio IC50
# Capra hircus [16] = species on record: Capra hircus; experiment: Inhibition of goat brain tubulin polymerization at 2 uM incubated for 10 mins followed by GTP addition and measured for 35 mins by spectrophotometric analysis relative to control; settings: time 45.0 min
# Capra hircus [17] = species on record: Capra hircus; experiment: Binding affinity to colchicine binding site of goat brain tubulin assessed as tubulin-compound complex fluorescence intensity at 10 uM preincubated with podophyllotoxin for 30 mins followed by compound addition and measured after 30 mins by fluorescence based analysis
# Capra hircus [18] = species on record: Capra hircus; experiment: Inhibition of goat brain tubulin polymerization at 5 uM incubated for 10 mins followed by GTP addition and measured for 35 mins by spectrophotometric analysis relative to control; settings: time 45.0 min
# [19] = Antiproliferative activity against human H357 cells assessed as reduction in cell growth by SRB assay; assay type: functional, cell-based
# A549 [20] = experiment: Antiproliferative activity against human A549 cells assessed as reduction in cell growth by SRB assay; assay type: functional, cell-based
# Tubulin (Homo sapiens) [21] = target: T1, Tubulin (Homo sapiens); experiment: Inhibition of tubulin polymerization in human A549 cells assessed as reduction in fluorescence intensity of microtubules at 20 nM measured after 24 hrs by Hoechst-33258 staining based immunofluorescence analysis relative to control; assay type: cell-based
# A549 [22] = experiment: Induction of cell cycle arrest in human A549 cells assessed as accumulation of cells at G1 phase at 20 nM incubated for 12 hrs by propidium iodide/RNase-staining based flow cytometry analysis (reference value: 67 +/- 11%); assay type: functional
# A549 [23] = experiment: Induction of cell cycle arrest in human A549 cells assessed as accumulation of cells at G2/M phase at 10 nM incubated for 12 hrs by propidium iodide/RNase-staining based flow cytometry analysis (reference value: 11 +/- 4%); assay type: functional
# A549 [24] = experiment: Cytotoxicity against human A549 cells assessed as proportion of dead cells at 20 nM incubated for 24 hrs by PI-staining based flow cytometry analysis (reference value: 9.8 to 9.9%); assay type: functional
# T47D = experiment: Antiproliferative activity against human T47D cells assessed as reduction in cell growth by SRB assay; assay type: functional, cell-based
# Capra hircus [25] = species on record: Capra hircus; experiment: Inhibition of goat brain tubulin polymerization at 3 uM incubated for 10 mins followed by GTP addition and measured for 35 mins by spectrophotometric analysis relative to control; assay type: tissue-based; settings: time 45.0 min
# [26] = Inhibition of goat brain tubulin polymerization incubated for 10 mins followed by GTP addition and measured for 35 mins by spectrophotometric analysis; assay type: tissue-based, Capra hircus
# [27] = Aqueous stability of the compound in PBS assessed as absorbance at 40 uM measured at pH 7.2 after 20 days by spectrophotometer analysis; assay type: physicochemical; settings: time 20 day, read-out: Stability
# MCF7 = experiment: Antiproliferative activity against human MCF7 cells assessed as reduction in cell growth by SRB assay; assay type: functional, cell-based
# Tubulin (Homo sapiens) [28] = target: T1, Tubulin (Homo sapiens); experiment: Inhibition of tubulin polymerization in human A549 cells assessed as induction of interphase microtubule disorganization at 20 nM measured after 24 hrs by Hoechst-33258 staining based immunofluorescence analysis; assay type: cell-based
# A549 [29] = experiment: Induction of cell cycle arrest in human A549 cells assessed as accumulation of cells at G1 phase at 10 nM incubated for 12 hrs by propidium iodide/RNase-staining based flow cytometry analysis (reference value: 67 +/- 11%); assay type: functional
# Capra hircus [30] = species on record: Capra hircus; experiment: Inhibition of goat brain tubulin polymerization assessed as reduction in initial rate of tubulin polymerization incubated for 10 mins followed by GTP addition and measured for 35 mins by spectrophotometric analysis; assay type: tissue-based; settings: dose 2-6 µM, time 45.0 min
# A549 [31] = experiment: Induction of cell cycle arrest in human A549 cells assessed as accumulation of cells at G2/M phase at 20 nM incubated for 12 hrs by propidium iodide/RNase-staining based flow cytometry analysis (reference value: 11 +/- 4%); assay type: functional
# Capra hircus [32] = species on record: Capra hircus; experiment: Inhibition of goat brain tubulin polymerization at 0.5 uM incubated for 10 mins followed by GTP addition and measured for 35 mins by spectrophotometric analysis relative to control; settings: time 45.0 min
# [33] = Cytotoxicity against mouse L929 cells assessed as reduction in cell growth by SRB assay; assay type: toxicity, cell-based
# Tubulin (Homo sapiens) [34] = target: T1, Tubulin (Homo sapiens); experiment: Inhibition of tubulin polymerization in human A549 cells assessed as induction of mitotic spindle microtubules depolymerization at 20 nM measured after 24 hrs by Hoechst-33258 staining based immunofluorescence analysis; assay type: cell-based
# [35] = Aqueous stability of the compound in PBS assessed as absorbance at 40 uM measured at pH 7.2 after 24 hrs by spectrophotometer analysis; assay type: physicochemical; settings: read-out: Stability
structure (smiles),measurement,setting,value
COc1cc(-c2nc(N)[nH]c2-c2ccc3ccccc3c2)cc(OC)c1OC,inhibition at 0.025 µM,HeLa [1],34%
COc1cc(-c2nc(N)[nH]c2-c2cncc3ccccc23)cc(OC)c1OC,inhibition at 0.025 µM,HeLa [1],47%
same,IC50,HeLa [2],0.041 µM
COc1cc(-c2nc(N)[nH]c2-c2ccc3nc(C)ccc3c2)cc(OC)c1OC,inhibition at 0.025 µM,HeLa [1],5%
COc1cc(-c2nc(N)[nH]c2-c2ccnc3cc(Cl)ccc23)cc(OC)c1OC,inhibition at 0.025 µM,HeLa [1],11%
COc1ccc2ncc(-c3[nH]c(N)nc3-c3cc(OC)c(OC)c(OC)c3)cc2c1,inhibition at 0.025 µM,HeLa [1],30%
COc1cc(-c2nc(N)[nH]c2-c2ccc3ncccc3c2)cc(OC)c1OC,inhibition at 0.025 µM,HeLa [1],9%
COc1cc(-c2nc(N)[nH]c2-c2ccc3cnccc3c2)cc(OC)c1OC,inhibition at 0.025 µM,HeLa [1],46%
same,IC50,HeLa [2],0.046 µM
COc1cc(-c2nc(N)[nH]c2-c2ccnc3ccccc23)cc(OC)c1OC,inhibition at 0.025 µM,HeLa [1],7%
COc1cc(-c2nc(N)[nH]c2-c2cccc3cnccc23)cc(OC)c1OC,inhibition at 0.025 µM,HeLa [1],43%
COc1cc(-c2nc(N)[nH]c2-c2ccc3ccccc3n2)cc(OC)c1OC,Activity,Capra hircus [3],inactive
same,Kd,[4],5 µM
same,IC50,MDA-MB-231,0.013 µM
same,Activity,A549 [5],76.7%
same,Activity,A549 [6],62.7%
same,Activity,A549 [7],22%
same,inhibition,Tubulin (Homo sapiens) [8],Active
same,IC50,B16-F10,0.025 µM
same,inhibition,Tubulin (Homo sapiens) [9],Active
same,inhibition,Tubulin (Homo sapiens) [10],Active
same,Activity,A549 [11],20%
same,inhibition,Capra hircus [12],11%
same,inhibition,Tubulin (Homo sapiens) [13],23.6%
same,Activity,A549 [14],19%
same,selectivity ratio,[15],2.76
same,inhibition,Capra hircus [16],28%
same,Activity,Capra hircus [17],inactive
same,inhibition,Capra hircus [18],75%
same,inhibition at 0.025 µM,HeLa [1],74%
same,IC50,[19],0.015 µM
same,IC50,A549 [20],0.012 µM
same,inhibition,Tubulin (Homo sapiens) [21],53.2%
same,Activity,A549 [22],37%
same,Activity,A549 [23],29%
same,Activity,A549 [24],35.9%
same,IC50,T47D,0.047 µM
same,inhibition,Capra hircus [25],45%
same,IC50,[26],3.4 µM
same,"remaining at 480 h, 40 µM",[27],47%
same,IC50,MCF7,0.02 µM
same,inhibition,Tubulin (Homo sapiens) [28],Active
same,Activity,A549 [29],51%
same,inhibition,Capra hircus [30],Dose-Dependent Effect
same,Activity,A549 [31],44%
same,inhibition,Capra hircus [32],8%
same,IC50,[33],0.069 µM
same,IC50,HeLa [2],0.01 µM
same,inhibition,Tubulin (Homo sapiens) [34],Active
COc1cc(-c2nc(N)[nH]c2-c2cccc3cccnc23)cc(OC)c1OC,inhibition at 0.025 µM,HeLa [1],32%
COc1cc(-c2nc(N)[nH]c2-c2cccc3ncccc23)cc(OC)c1OC,inhibition at 0.025 µM,HeLa [1],27%
COc1ccc(/C=C\c2cc(OC)c(OC)c(OC)c2)cc1O [COMBRETASTATIN A4],IC50,MDA-MB-231,0.1 µM
same,Activity,A549 [6],90.4%
same,IC50,B16-F10,0.082 µM
same,Activity,A549 [14],18%
same,inhibition at 0.025 µM,HeLa [1],57%
same,IC50,[19],0.0035 µM
same,IC50,A549 [20],0.043 µM
same,Activity,A549 [22],65%
same,Activity,A549 [24],7.37%
same,"remaining at 24 h, 40 µM",[35],47%
same,IC50,T47D,0.407 µM
same,IC50,MCF7,0.024 µM
same,Activity,A549 [31],17%
same,IC50,[33],0.117 µM
same,IC50,HeLa [2],0.024 µM
COc1cc(-c2nc(N)[nH]c2-c2cnc3ccc(Cl)cc3c2)cc(OC)c1OC,inhibition at 0.025 µM,HeLa [1],11%
COc1cc(-c2nc(N)[nH]c2-c2cnc3ccc(C)cc3c2)cc(OC)c1OC,inhibition at 0.025 µM,HeLa [1],8%

# Reference: ChEMBL document CHEMBL5390227, “Development of QTMP: A promising anticancer agent through NP-Privileged Motif-Driven structural modulation” (Bioorg Med Chem, 2023)
